Reference: patent publication US10933063B2 (priority 2017, dated 2021)

Target: BTK (Homo sapiens (Human), UniProt Q06187)
Experiment: biochemical

BTK, sequence (Q06187 whole entry, looked up, species assumed): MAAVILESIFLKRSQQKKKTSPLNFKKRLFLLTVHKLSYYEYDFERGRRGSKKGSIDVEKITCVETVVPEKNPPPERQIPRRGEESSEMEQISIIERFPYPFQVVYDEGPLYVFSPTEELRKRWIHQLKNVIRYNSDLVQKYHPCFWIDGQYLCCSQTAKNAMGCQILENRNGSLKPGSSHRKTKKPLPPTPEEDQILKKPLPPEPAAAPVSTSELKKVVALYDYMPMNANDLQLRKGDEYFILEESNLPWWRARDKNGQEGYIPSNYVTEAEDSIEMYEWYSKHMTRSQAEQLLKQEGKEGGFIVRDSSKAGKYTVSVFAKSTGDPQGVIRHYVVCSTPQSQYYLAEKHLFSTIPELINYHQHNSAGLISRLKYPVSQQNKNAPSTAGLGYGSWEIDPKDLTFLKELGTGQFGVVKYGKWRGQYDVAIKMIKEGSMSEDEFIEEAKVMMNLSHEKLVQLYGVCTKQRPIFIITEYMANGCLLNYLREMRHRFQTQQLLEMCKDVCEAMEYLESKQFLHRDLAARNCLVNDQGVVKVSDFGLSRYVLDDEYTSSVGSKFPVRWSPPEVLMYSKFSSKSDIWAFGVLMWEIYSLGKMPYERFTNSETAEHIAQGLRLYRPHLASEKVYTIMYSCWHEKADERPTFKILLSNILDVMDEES

SMILES | IC50 [nM]
C=CC(=O)N1CCCC[C@H]1c1nc(-c2ccc(Oc3cccc(Cl)c3F)cc2)c2c(C)nccn12 [Example 42, (S)-1-(2-(1-(4-(3-chloro-2-fluorophenoxy)phenyl)-8-methylimidazo[1,5-a]pyrazin-3-yl)piperidin-1-yl)prop-2-en-1-one] | 10 to 100
CC#CC(=O)N1CC[C@@H](c2nc(-c3ccc(Oc4cccc(OC)c4F)cc3)c3c(CF)nccn23)C1 [Example 120, (R)-1-(3-(1-(4-(2-fluoro-3-methoxyphenoxy)phenyl)-8-(fluoromethyl)imidazo[1,5-a]pyrazin-3-yl)pyrrolidin-1-yl)but-2-yn-1-one] | 10 to 100
CC#CC(=O)N1CCC[C@H]1c1nc(-c2ccc(COc3ccc(F)cc3)cc2)c2cnccn12 [Example 128, (S)-1-(2-(1-(4-((4-fluorophenoxy)methyl)phenyl)imidazo[1,5-a]pyrazin-3-yl)pyrrolidin-1-yl)but-2-yn-1-one] | 1000 to 10000
CC#CC(=O)N1CCC[C@H]1c1nc(-c2ccc(Oc3cccc(OC)c3F)cc2)c2cnccn12 [Example 34, (S)-1-(2-(1-(4-(2-fluoro-3-methoxyphenoxy)phenyl)imidazo[1,5-a]pyrazin-3-yl)pyrrolidin-1-yl)but-2-yn-1-one] | 10 to 100
C=CC(=O)N1CCCC[C@H]1c1nc(-c2ccc(Oc3cccc(OC)c3F)cc2)c2cncc(C)n12 [Example 78, (S)-1-(2-(1-(4-(2-fluoro-3-methoxyphenoxy)phenyl)-5-methylimidazo[1,5-a]pyrazin-3-yl)piperidin-1-yl)prop-2-en-1-one] | 10 to 100
CC#CC(=O)N1CCC[C@H]1c1nc(-c2ccc(COc3ccc(F)c(F)c3)cc2)c2cnccn12 [Example 132, (S)-l-(2-(1-(4-((3,4-difluorophenoxy)methyl)phenyl)imidazo[1,5-a]pyrazin-3-yl)pyrrolidin-1-yl)but-2-yn-1-one] | 1000 to 10000
CC#CN1CCC[C@H]1c1nc(-c2ccc(C(=O)Nc3cc(C(F)(F)F)ccn3)cc2)c2c(CO)nccn12 [Example 210, (S)-4-(8-(hydroxymethyl)-3-(1-(prop-1-yn-1-yl)pyrrolidin-2-yl)imidazo [1,5-a]pyrazin-1-yl)-N-(4-(trifluoromethyl)pyridin-2-yl)benzamide] | 100 to 1000
CC#CC(=O)N1CCC[C@H]1c1nc(-c2ccc(Oc3cccc(OC)c3F)cc2)c2c(C)nccn12 [Example 57, (S)-1-(2-(1-(4-(2-fluoro-3-methoxyphenoxy)phenyl)-8-methylimidazo[1,5-a]pyrazin-3-yl)pyrrolidin-1-yl)but-2-yn-1-one] | 10 to 100
COc1cccc(Oc2ccc(-c3nc([C@@H]4CCCN4C(=O)C(N)=O)n4ccncc34)cc2)c1F [Example 33] | 1000 to 10000
C=CC(=O)N1CC[C@@H](c2nc(-c3ccc(Oc4cccc(OC)c4F)cc3)c3c(CCC)nccn23)C1 [Example 109, (R)-1-(3-(1-(4-(2-fluoro-3-methoxyphenoxy)phenyl)-8-propylimidazo[1,5-a]pyrazin-3-yl)pyrrolidin-1-yl)prop-2-en-1-one] | 100 to 1000
CC#CC(=O)N1CC[C@@H](c2nc(-c3ccc(Oc4cccc(OC)c4F)cc3)c3cncc(OCCN(C)C)n23)C1 [Example 90, (R)-1-(3-(5-(2-(dimethylamino)ethoxy)-1-(4-(2-fluoro-3-methoxyphenoxy)phenyl)imidazo[1,5-a]pyrazin-3-yl)pyrrolidin-1-yl)but-2-yn-1-one] | 10 to 100
CC#CC(=O)N1CCC[C@@H](c2nc(-c3ccc(C(=O)Nc4ccccn4)cc3)c3c(C)ncc(C)n23)C1 [Example 185, (R)-4-(3-(1-(but-2-ynoyl)piperidin-3-yl)-5,8-dimethylimidazo[1,5-a]pyrazin-1-yl)-N-(pyridin-2-yl)benzamide] | 100 to 1000
C=CC(=O)N1CCCC[C@H]1c1nc(-c2ccc(Oc3cccc(OC)c3F)cc2)c2c(C(=O)OC)nccn12 [Example 66, methyl (S)-3-(1-acryloylpiperidin-2-yl)-1-(4-(2-fluoro-3-methoxyphenoxy)phenyl)imidazo[1,5-a]pyrazine-8-carboxylate] | 1000 to 10000
CC#CC(=O)N1CCC[C@H]1c1nc(-c2ccc(OCc3cccc(Cl)c3)cc2)c2cnccn12 [Example 142, (S)-1-(2-(1-(4-((3-chlorobenzyl)oxy)phenyl)imidazo[1,5-a]pyrazin-3-yl)pyrrolidin-1-yl)but-2-yn-1-one] | 1000 to 10000
CC#CC(=O)N1CCCC[C@H]1c1nc(-c2ccc(OCc3cccc(F)c3F)cc2)c2c(C)nccn12 [Example 155, (S)-1-(2-(1-(4-((2,3-difluorobenzyl)oxy)phenyl)-8-methylimidazo[1,5-a]pyrazin-3-yl)piperidin-1-yl)but-2-yn-1-one] | 100 to 1000
CC#CC(=O)N1CCC[C@H]1c1nc(-c2ccc(C(=O)Nc3ccccn3)cc2)c2c(CO)nccn12 [Example 207, (S)-4-(3-(1-(but-2-ynoyl)pyrrolidin-2-yl)-8-(hydroxymethyl)imidazo [1,5-a]pyrazin-1-yl)-N-(pyridin-2-yl)benzamide] | 100 to 1000
C=CC(=O)N1CCCC[C@H]1c1nc(-c2ccc(C(=O)Nc3ccccn3)cc2)c2cncc(C)n12 [Example 186, (S)-4-(3-(1-acryloylpiperidin-2-yl)-5-methylimidazo [1,5-a]pyrazin-1-yl)-N-(pyridin-2-yl)benzamide] | 100 to 1000

SMILES | IC50 [nM]
CC#CC(=O)N1CCC[C@H]1c1nc(-c2ccc(COc3ccccc3F)cc2)c2cnccn12 [Example 146, (S)-1-(2-(1-(4-((2-fluorophenoxy)methyl)phenyl)imidazo[1,5-a]pyrazin-3-yl)pyrrolidin-1-yl)but-2-yn-1-one] | 1000 to 10000
C=CC(=O)N1CCCC[C@H]1c1nc(-c2ccc(Oc3cccc(OC)c3F)cc2)c2c(C(F)(F)F)nccn12 [Example 121, (S)-1-(2-(1-(4-(2-fluoro-3-methoxyphenoxy)phenyl)-8-(trifluoromethyl)imidazo[1,5-a]pyrazin-3-yl)piperidin-1-yl)prop-2-en-1-one] | 1000 to 10000
CC#CC(=O)N1CCCC[C@H]1c1nc(-c2ccc(COc3ccc(F)c(F)c3)cc2)c2cnccn12 [Example 149, (S)-1-(2-(1-(4-((3,4-difluorophenoxy)methyl)phenyl)imidazo[1,5-a]pyrazin-3-yl)piperidin-1-yl)but-2-yn-1-one] | 1000 to 10000
COc1cccc(Oc2ccc(-c3nc([C@@H]4CCCN(C(=O)C(N)=O)C4)n4ccncc34)cc2)c1F [Example 3, (R)-2-(3-(1-(4-(2-fluoro-3-methoxyphenoxy)phenyl)imidazo[1,5-a]pyrazin-3-yl)piperidin-1-yl)-2-oxoacetamide] | 1000 to 10000
CC#CC(=O)N1CCCC[C@H]1c1nc(-c2ccc(Oc3cccc(OC)c3F)cc2)c2c(C)ncc(C)n12 [Example 81, (S)-1-(2-(1-(4-(2-fluoro-3-methoxyphenoxy)phenyl)-5,8-dimethylimidazo[1,5-a]pyrazin-3-yl)piperidin-1-yl)but-2-yn-1-one] | 100 to 1000
C=CC(=O)N1CCC[C@H]1c1nc(-c2ccc(Oc3ccc(OC)cc3)cc2)c2cnccn12 [Example 9, (S)-1-(2-(1-(4-(4-methoxyphenoxy)phenyl)imidazo[1,5-a]pyrazin-3-yl)pyrrolidin-1-yl)prop-2-en-1-one] | 10 to 100
CC#CC(=O)N1CCC[C@H]1c1nc(-c2ccc(COc3cccc(OC)c3F)cc2)c2cnccn12 [Example 160, (S)-1-(2-(1-(4-((2-fluoro-3-methoxyphenoxy)methyl)phenyl)imidazo[1,5-a]pyrazin-3-yl)pyrrolidin-1-yl)but-2-yn-1-one] | 1000 to 10000
C=CC(=O)N1CCCC[C@H]1c1nc(-c2ccc(COc3ccc(F)c(F)c3)cc2)c2cnccn12 [Example 148, (S)-1-(2-(1-(4-((3,4-difluorophenoxy)methyl)phenyl)imidazo[1,5-a]pyrazin-3-yl)piperidin-1-yl)prop-2-en-1-one] | 100 to 1000
CC#CC(=O)N1CC[C@@H](c2nc(-c3ccc(C(=O)Nc4cc(C(F)(F)F)ccn4)cc3)c3cnccn23)C1 [Example 211, (R)-4-(3-(1-(but-2-ynoyl)pyrrolidin-3-yl)imidazo[1,5-a]pyrazin-1-yl)-N-(4-(trifluoromethyl)pyridin-2-yl)benzamide] | 10 to 100
C=CC(=O)N1CCC[C@H]1c1nc(-c2ccc(OCc3cccc(F)c3)cc2)c2cnccn12 [Example 135, (S)-1-(2-(1-(4-((3-fluorobenzyl)oxy)phenyl)imidazo[1,5-a]pyrazin-3-yl)pyrrolidin-1-yl)prop-2-en-1-one] | 10 to 100
C=CC(=O)N1CC[C@@H](c2nc(-c3ccc(C(=O)Nc4cc(C(F)(F)F)ccn4)cc3)c3cnccn23)C1 [Example 195, (R)-4-(3-(1-acryloylpyrrolidin-3-yl)imidazo[1,5-a]pyrazin-1-yl)-N-(4-(trifluoromethyl)pyridin-2-yl)benzamide] | 10 to 100
CC#CC(=O)N1CCCC[C@H]1c1nc(-c2ccc(OCc3cccc(F)c3)cc2)c2cnccn12 [Example 153, (S)-1-(2-(1-(4-((3-fluorobenzyl)oxy)phenyl)imidazo[1,5-a]pyrazin-3-yl)piperidin-1-yl)but-2-yn-1-one] | 1000 to 10000
CC#CC(=O)N1CCCC[C@H]1c1nc(-c2ccc(Oc3cccc(F)c3F)cc2)c2c(C)nccn12 [Example 60, (S)-1-(2-(1-(4-(2,3-difluorophenoxy)phenyl)-8-methylimidazo[1,5-a]pyrazin-3-yl)piperidin-1-yl)but-2-yn-1-one] | 10 to 100
CC#CC(=O)N1CCCC[C@H]1c1nc(-c2cccc(OCc3cccc(C(F)(F)F)c3)c2)c2c(C)nccn12 [Example 163, (S)-1-(2-(8-methyl-1-(3-((3-(trifluoromethyl)benzyl)oxy)phenyl)imidazo[1,5-a]pyrazin-3-yl)piperidin-1-yl)but-2-yn-1-one] | 1000 to 10000
CC#CC(=O)N1CCCC[C@H]1c1nc(-c2ccc(Oc3cccc(OC)c3)cc2)c2cnccn12 [Example 59, (S)-1-(2-(1-(4-(3-methoxyphenoxy)phenyl)imidazo[1,5-a]pyrazin-3-yl)piperidin-1-yl)but-2-yn-1-one] | 100 to 1000
C=CC(=O)N1CCCC[C@H]1c1nc(-c2ccc(OCc3cccc(F)c3F)cc2)c2c(C)nccn12 [Example 154, (S)-1-(2-(1-(4-((2,3-difluorobenzyl)oxy)phenyl)-8-methylimidazo[1,5-a]pyrazin-3-yl)piperidin-1-yl)prop-2-en-1-one] | 10 to 100
